target: T1, indoleamine 2, 3-dioxygenase (IDO1) (Homo sapiens, UniProt P14902); experiment: PBMC IDO1 assay (kynurenine detection via mass spectrometry); format: cell-based; details: human PBMC stimulated with IFN-γ and LPS, 2 days, kynurenine by mass spectrometry; read-out: IDO1 PBMC pIC50 (converted)
T1 construct: human peripheral blood mononuclear cells (PBMC) (PB003F; host or cells: human PBMC stimulated with IFN-gamma and LPS
Procedure: Compounds of the present invention were tested via high-throughput cellular assays utilizing detection of kynurenine via mass spectrometry and cytotoxicity as end-points. For the mass spectrometry and cytotoxicity assays, human peripheral blood mononuclear cells (PBMC) (PB003F; AIICells®, Alameda, Calif.) were stimulated with human interferon-γ (IFN-γ) (Sigma-Aldrich Corporation, St. Louis, Mo.) and lipopolysaccharide from Salmonella minnesota (LPS) (Invivogen, San Diego, Calif.) to induce the expression of indoleamine 2, 3-dioxygenase (IDO1). Compounds with IDO1 inhibitory properties decreased the amount of kynurenine produced by the cells via the tryptophan catabolic pathway. Cellular toxicity due to the effect of compound treatment was measured using CellTiter-Glo® reagent (CTG) (Promega Corporation, Madison, Wis.), which is based on luminescent detection of ATP, an indicator of metabolically active cells.
In preparation for the assays, test compounds were serially diluted 3-fold in DMSO from a typical top concentration of 5 mM and plated at 0.5 μL in 384-well, polystyrene, clear bottom, tissue culture treated plates with lids (Greiner Bio-One, Kremsmunster, Austria) to generate 11-point dose response curves. Low control wells (0% kynurenine or 100% cytotoxicity) contained either 0.5 μL of DMSO in the presence of unstimulated (-IFN-γ/-LPS) PBMCs for the mass spectrometry assay or 0.5 μL of DMSO in the absence of cells for the cytotoxicity assay, and high control wells (100% kynurenine or 0% cytotoxicity) contained 0.5 μL of DMSO in the presence of stimulated (+IFN-γ/+LPS) PBMCs for both the mass spectrometry and cytotoxicity assays.
Frozen stocks of PBMCs were washed and recovered in RPMI 1640 medium (Thermo Fisher Scientific, Inc., Waltham, Mass.) supplemented with 10% v/v heat-inactivated fetal bovine serum (FBS) (Thermo Fisher Scientific, Inc., Waltham, Mass.), and 1× penicillin-streptomycin antibiotic solution (Thermo Fisher Scientific, Inc., Waltham, Mass.). The cells were diluted to 1,000,000 cells/mL in the supplemented RPMI 1640 medium. 50 μL of either the cell suspension, for the mass spectrometry assay, or medium alone, for the cytotoxicity assay, were added to the low control wells, on the previously prepared 384-well compound plates, resulting in 50,000 cells/well or 0 cells/well respectively. IFN-γ and LPS were added to the remaining cell suspension at final concentrations of 100 ng/ml and 50 ng/ml respectively, and 50 μL of the stimulated cells were added to all remaining wells on the 384-well compound plates. The plates, with lids, were then placed in a 37° C., 5% CO2 humidified incubator for 2 days.
Following incubation, the 384-well plates were removed from the incubator and allowed to equilibrate to room temperature for 30 minutes. For the cytotoxicity assay, CellTiter-Glo® was prepared according to the manufacturer's instructions, and 40 μL were added to each plate well. After a twenty minute incubation at room temperature, luminescence was read on an EnVision® Multilabel Reader (PerkinElmer Inc., Waltham, Mass.). For the mass spectrometry assay, 10 μL of supernatant from each well of the compound-treated plates were added to 40 μL of acetonitrile, containing 10 μM of an internal standard for normalization, in 384-well, polypropylene, V-bottom plates (Greiner Bio-One, Kremsmunster, Austria) to extract the organic analytes. Following centrifugation at 2000 rpm for 10 minutes, 10 μL from each well of the acetonitrile extraction plates were added to 90 μL of sterile, distilled H2O in 384-well, polypropylene, V-bottom plates for analysis of kynurenine and the internal standard on the RapidFire 300 (Agilent Technologies, Santa Clara, Calif.) and 4000 QTRAP MS (SCIEX, Framingham, Mass.). MS data were integrated using Agilent Technologies' RapidFire Integrator software, and data were normalized for analysis as a ratio of kynurenine to the internal standard. […]

T1 sequence (P14902 whole entry): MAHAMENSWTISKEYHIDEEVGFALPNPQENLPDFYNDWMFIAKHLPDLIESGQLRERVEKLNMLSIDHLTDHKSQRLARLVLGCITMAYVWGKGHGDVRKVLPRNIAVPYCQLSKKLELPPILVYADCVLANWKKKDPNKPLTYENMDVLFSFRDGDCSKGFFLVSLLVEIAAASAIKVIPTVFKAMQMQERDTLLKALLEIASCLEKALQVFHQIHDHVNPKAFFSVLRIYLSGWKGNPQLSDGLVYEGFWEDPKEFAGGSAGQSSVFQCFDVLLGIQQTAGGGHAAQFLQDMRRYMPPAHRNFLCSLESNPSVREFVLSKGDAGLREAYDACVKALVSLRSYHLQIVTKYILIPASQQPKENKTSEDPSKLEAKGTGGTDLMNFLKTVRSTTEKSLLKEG

`COc1ccc(C(CC2CCN(C(=O)OC(C)(C)C)CC2)NC(=O)c2ccc(F)cc2)cn1` (centres unmarked) [Example 54, tert-butyl 4-(2-(4-fluorobenzamido)-2-(6-methoxypyridin-3-yl)ethyl)piperidine-1-carboxylate] and `COc1ccc(C(CC2CCN(C(=O)OC(C)C)CC2)NC(=O)c2ccc(F)cc2)cn1` (centres unmarked) [Example 55, isopropyl 4-(2-(4-fluorobenzamido)-2-(6-methoxypyridin-3-yl)ethyl)piperidine-1-carboxylate] are the same in IC50: 0.0126 µM for the first, 0.0126 µM for the second.

`COc1ccc(C(CC2CCN(C(=O)OCC(C)C)CC2)NC(=O)c2ccc(F)cc2)cn1` (centres unmarked) [Example 56, isobutyl 4-(2-(4-fluorobenzamido)-2-(6-methoxypyridin-3-yl)ethyl)piperidine-1-carboxylate] and `COc1ccc([C@@H](CC2CCN(C(=O)OC(C)(C)C)CC2)NC(=O)c2ccc(Cl)s2)cn1` [Example 70, (R)-tert-butyl 4-(2-(5-chlorothiophene-2-carboxamido)-2-(6-methoxypyridin-3-yl)ethyl)piperidine-1-carboxylate] are within 1.5-fold of each other in IC50: 0.0126 µM for the first, 0.0158 µM for the second.

`CC(C)(C)OC(=O)N1CCC(CC(NC(=O)c2ccc(Br)cc2)c2ccccc2)CC1` (centres unmarked) [Example 57, tert-butyl 4-(2-(4-bromobenzamido)-2-phenylethyl)piperidine-1-carboxylate] and `CC(C)(C)OC(=O)N1CCC(C[C@H](NC(=O)c2ccc(Cl)cc2)c2ccccc2)CC1` [Example 65, (S)-tert-butyl 4-(2-(4-chlorobenzamido)-2-phenylethyl)piperidine-1-carboxylate] are the same in IC50: 0.0126 µM for the first, 0.0126 µM for the second.

`CC(C)(C)OC(=O)N1CCC(CC(NC(=O)c2ccc(F)s2)c2ccccc2)CC1` (centres unmarked) [Example 58, tert-butyl 4-(2-(5-fluorothiophene-2-carboxamido)-2-phenylethyl)piperidine-1-carboxylate] and `Cc1ccc(C(=O)NC(CC2CCN(C(=O)OC(C)(C)C)CC2)c2ccccc2)s1` (centres unmarked) [Example 69, tert-butyl 4-(2-(5-methylthiophene-2-carboxamido)-2-phenylethyl)piperidine-1-carboxylate] are within 1.5-fold of each other in IC50: 0.0126 µM for the first, 0.0158 µM for the second.

`Cc1ccc(C(=O)NC(CC2CCN(C(=O)OC(C)(C)C)CC2)C2CCCC2)s1` (centres unmarked) [Example 59, tert-butyl 4-(2-cyclopentyl-2-(5-methylthiophene-2-carboxamido)ethyl)piperidine-1-carboxylate] and `Cc1ccc(C(=O)NC(CC2CCN(C(=O)OC(C)(C)C)CC2)C2CCCCC2)s1` (centres unmarked) [Example 80, tert-butyl 4-(2-cyclohexyl-2-(5-methylthiophene-2-carboxamido)ethyl)piperidine-1-carboxylate] are within 1.5-fold of each other in IC50: 0.0126 µM for the first, 0.0158 µM for the second.

`CCc1ccc(C(=O)NC(CC(C)C)CC2CCN(C(=O)OC(C)(C)C)CC2)s1` (centres unmarked) [Example 60, tert-butyl 4-(2-(5-ethylthiophene-2-carboxamido)-4-methylpentyl)piperidine-1-carboxylate] and `CC(C)CC(CC1CCN(C(=O)OC(C)(C)C)CC1)NC(=O)c1ccc(F)s1` (centres unmarked) [Example 79, tert-butyl 4-(2-(5-fluorothiophene-2-carboxamido)-4-methylpentyl)piperidine-1-carboxylate] are within 1.5-fold of each other in IC50: 0.0126 µM for the first, 0.0158 µM for the second.

`O=C(NC(CC1CCN(C(=O)OC2CCC2)CC1)c1ccccc1)c1ccc(Cl)cc1` (centres unmarked) [Example 61, cyclobutyl 4-(2-(4-chlorobenzamido)-2-phenylethyl)piperidine-1-carboxylate] and `O=C(NC(CC1CCN(C(=O)OC2CC2)CC1)c1ccccc1)c1ccc(Cl)cc1` (centres unmarked) [Example 77, cyclopropyl 4-(2-(4-chlorobenzamido)-2-phenylethyl)piperidine-1-carboxylate] are within 1.5-fold of each other in IC50: 0.0126 µM for the first, 0.0158 µM for the second.

`C#CCOC(=O)N1CCC(CC(NC(=O)c2ccc(Cl)cc2)c2ccccc2)CC1` (centres unmarked) [Example 62, prop-2-yn-1-yl 4-(2-(4-chlorobenzamido)-2-phenylethyl)piperidine-1-carboxylate] and `CCOC(=O)N1CCC(C[C@H](NC(=O)c2ccc(Cl)cc2)c2ccccc2)CC1` [Example 81, (S)-ethyl 4-(2-(4-chlorobenzamido)-2-phenylethyl)piperidine-1-carboxylate] are within 1.5-fold of each other in IC50: 0.0126 µM for the first, 0.0158 µM for the second.

`CC(C)(C)OC(=O)N1CCC(C[C@H](NC(=O)c2ccc(Br)cc2)C2CC2)CC1` [Example 63, (S)-tert-butyl 4-(2-(4-bromobenzamido)-2-cyclopropylethyl)piperidine-1-carboxylate] and `CC(C)C(CC1CCN(C(=O)OC(C)(C)C)CC1)NC(=O)c1ccc(Br)cc1` (centres unmarked) [Example 74, tert-butyl 4-(2-(4-bromobenzamido)-3-methylbutyl)piperidine-1-carboxylate] are within 1.5-fold of each other in IC50: 0.0126 µM for the first, 0.0158 µM for the second.

`CC(C)(C)OC(=O)N1CCC(CC(NC(=O)c2ccc(Cl)s2)C2CCCCC2)CC1` (centres unmarked) [Example 64, tert-butyl 4-(2-(5-chlorothiophene-2-carboxamido)-2-cyclohexylethyl)piperidine-1-carboxylate] and `CCc1ccc(C(=O)NC(CC2CCN(C(=O)OC(C)(C)C)CC2)C2CCCC2)s1` (centres unmarked) [Example 78, tert-butyl 4-(2-cyclopentyl-2-(5-ethylthiophene-2-carboxamido)ethyl)piperidine-1-carboxylate] are within 1.5-fold of each other in IC50: 0.0126 µM for the first, 0.0158 µM for the second.

`CCOC(=O)N1CCC(C[C@H](NC(=O)c2ccc(CC)s2)c2ccccc2)CC1` [Example 66, (S)-ethyl 4-(2-(5-ethylthiophene-2-carboxamido)-2-phenylethyl)piperidine-1-carboxylate] and `CC(C)(C)OC(=O)N1CCC(CC(NC(=O)c2ccc(Cl)cc2)c2ccccc2)CC1` (centres unmarked) [Example 68, tert-butyl 4-(2-(4-chlorobenzamido)-2-phenylethyl)piperidine-1-carboxylate] are within 1.5-fold of each other in IC50: 0.0126 µM for the first, 0.0158 µM for the second.

`CC(C)CC(CC1CCN(C(=O)Oc2ccccc2)CC1)NC(=O)c1ccc(Cl)cc1` (centres unmarked) [Example 67, phenyl 4-(2-(4-chlorobenzamido)-4-methylpentyl)piperidine-1-carboxylate] and `CC(C)CC(CC1CCN(C(=O)OC(C)(C)C)CC1)NC(=O)c1ccc(Cl)cc1` (centres unmarked) [Example 75, tert-butyl 4-(2-(4-chlorobenzamido)-4-methylpentyl)piperidine-1-carboxylate] are within 1.5-fold of each other in IC50: 0.0126 µM for the first, 0.0158 µM for the second.

`CC(C)(C)OC(=O)N1CCC(CC(NC(=O)c2ccc(Br)c(F)c2)c2ccccc2)CC1` (centres unmarked) [Example 71, tert-butyl 4-(2-(4-bromo-3-fluorobenzamido)-2-phenylethyl)piperidine-1-carboxylate] and `CC(C)(C)OC(=O)N1CCC(CC(NC(=O)c2ccc(I)cc2)c2ccccc2)CC1` (centres unmarked) [Example 72, tert-butyl 4-(2-(4-iodobenzamido)-2-phenylethyl)piperidine-1-carboxylate] are the same in IC50: 0.0158 µM for the first, 0.0158 µM for the second.

`CN(C)c1nnc(C(CC2CCN(C(=O)OC(C)(C)C)CC2)NC(=O)c2ccc(Cl)s2)o1` (centres unmarked) [Example 73, tert-butyl 4-(2-(5-chlorothiophene-2-carboxamido)-2-(5-(dimethylamino)-1,3,4-oxadiazol-2-yl)ethyl)piperidine-1-carboxylate] and `CCN(CCOC)c1nnc(C(CC2CCN(C(=O)OC(C)(C)C)CC2)NC(=O)c2ccc(C)s2)o1` (centres unmarked) [Example 82, tert-butyl 4-(2-(5-(ethyl(2-methoxyethyl)amino)-1,3,4-oxadiazol-2-yl)-2-(5-methylthiophene-2-carboxamido)ethyl)piperidine-1-carboxylate] are the same in IC50: 0.0158 µM for the first, 0.0158 µM for the second.

`CC(C)CC(CC1CCN(C(=O)OC(C)(C)C)CC1)NC(=O)c1ccc(F)cc1` (centres unmarked) [Example 76, tert-butyl 4-(2-(4-fluorobenzamido)-4-methylpentyl)piperidine-1-carboxylate] was tested, and the IC50 was 0.0158 µM.

— patent US20210078988A1, “MODULATORS OF INDOLEAMINE 2,3-DIOXYGENASE” (GLAXOSMITHKLINE INTELLECTUAL PROPERTY DEVELOPMENT LIMITED, priority 2017, published 2021)
